Like-named read-outs stand apart in the source and are kept apart here.
Experiments:
[1] = system: Phosphorylation of ERK1/2 in MIA PaCa-2 cells; test: Phospho-ERK1/2 MSD assay in MIA PaCa-2 cells; format: cell-based; conditions: read-out: p-ERK IC50 (2 h, MiaPaCa-2; μM), 2 h compound treatment, MIA PaCa-2 cells, EGF stimulated
Summary of the method: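 Phospho-ERK1/2 measured by MSD electrochemiluminescence kit in RIPA lysates of MIA PaCa-2 cells. Cells were treated with compound titrations for 2 or 4 h at 37 °C, 5% CO2, followed by a 10 min pulse of 10 ng/mL EGF.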

[2] = target: GDP-bound KRAS protein (aa 1-169), containing both G12C and C118A amino acid substitutions (Homo sapiens (Human), UniProt P01116, C118A/G12C); test: Coupled nucleotide exchange assay (SOS-mediated nucleotide exchange, AlphaScreen); format: biochemical; conditions: read-out: Coupled exchange IC50 (5 min; μM); 5 min compound pre-incubation
Sequence of GDP-bound KRAS protein (aa 1-169), containing both G12C and C118A amino acid substitutions (P01116 other isoform, or with tags, fused parts or gaps G12C/C118A): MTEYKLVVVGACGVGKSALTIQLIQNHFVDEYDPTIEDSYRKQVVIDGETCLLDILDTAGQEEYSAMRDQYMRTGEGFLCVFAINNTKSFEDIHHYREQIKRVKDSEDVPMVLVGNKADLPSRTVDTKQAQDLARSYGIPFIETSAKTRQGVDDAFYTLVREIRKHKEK

[3] = system: Phosphorylation of ERK1/2 in A549 cells; test: Phospho-ERK1/2 MSD assay in A549 cells; format: cell-based; conditions: read-out: p-ERK IC50 (2 h, A549; μM), 2 h compound treatment, A549 cells, EGF stimulated
Summary of the method: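 Phospho-ERK1/2 was quantified by MSD immunoassay in RIPA lysates of MIA PaCa-2 or A549 cells. Before lysis, cells received 10 ng/mL EGF for 10 min after 2 or 4 h exposure at 37° C. to a compound concentration series.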

Structure (SMILES) | IC50 [1] [µM] | IC50 [2] [µM] | IC50 [3] [µM] | IC50 ([1]; Homo sapiens, MIA PaCa-2, 2 h) [µM] | IC50 ([3]; Homo sapiens, A549, 2 h) [µM]
C=CC(=O)N1C[C@H](C)N(c2nc(=O)n(-c3c(C)ccnc3C(C)C)c3nc(-c4sccc4C)c(Cl)cc23)C[C@H]1C (atropisomer, axis not shown; (M)) [Example 93-1, (M)-6-Chloro-4-[(2S,5R)-2,5-dimethyl-4-prop-2-enoyl-piperazin-1-yl]-1-(2-isopropyl-4-methyl-3-pyridyl)-7-(3-methyl-2-thienyl)pyrido[2,3-d]pyrimidin-2-one] | 0.097 | 0.055 | > 7.5 | – | –
C=CC(=O)N1C[C@H](C)N(c2nc(=O)n(-c3c(C)ccnc3C(C)C)c3nc(-c4ccccc4C(C)C)c(F)cc23)C[C@H]1C (atropisomer, axis not shown; (M)) [Example 94-1, (M)-4-[(2S,5R)-2,5-Dimethyl-4-prop-2-enoyl-piperazin-1-yl]-6-fluoro-1-(2-isopropyl-4-methyl-3-pyridyl)-7-(2-isopropylphenyl)pyrido[2,3-d]pyrimidin-2-one] | 0.107 | 0.077 | > 7.5 | – | –
C=CC(=O)N1C[C@H](C)N(c2nc(=O)n(-c3c(C)ccnc3C(C)C)c3nc(-c4cc(C)ccc4F)c(F)cc23)C[C@H]1C (atropisomer, axis not shown; (M)) [Example 94-4, (M)-4-[(2S,5R)-2,5-dimethyl-4-prop-2-enoyl-piperazin-1-yl]-6-fluoro-7-(2-fluoro-5-methyl-phenyl)-1-(2-isopropyl-4-methyl-3-pyridyl)pyrido [2,3-d]pyrimidin-2-one] | – | 0.222 | – | 0.218 | > 7.5
C=CC(=O)N1C[C@H](C)N(c2nc(=O)n(-c3c(C)ccnc3C(C)C)c3nc(-c4cc(Cl)ccc4F)c(F)cc23)C[C@H]1C (atropisomer, axis not shown; (M)) [Example 94-5, (M)-7-(5-chloro-2-fluoro-phenyl)-4-[(2S,5R)-2,5-dimethyl-4-prop-2-enoyl-piperazin-1-yl]-6-fluoro-1-(2-isopropyl-4-methyl-3-pyridyl)pyrido [2,3-d]pyrimidin-2-one] | – | 0.708 | – | 0.265 | > 7.5
C=CC(=O)N1C[C@H](C)N(c2nc(=O)n(-c3c(C)ccnc3C(C)C)c3nc(-c4ccccc4C)c(F)cc23)C[C@H]1C (atropisomer, axis not shown; (M)) [Example 94-8, (M)-4-[(2S,5R)-2,5-Dimethyl-4-prop-2-enoyl-piperazin-1-yl]-6-fluoro-1-(2-isopropyl-4-methyl-3-pyridyl)-7-(o-tolyl)pyrido[2,3-d]pyrimidin-2-one] | – | 0.255 | – | 0.131 | > 7.5
C=CC(=O)N1C[C@H](C)N(c2nc(=O)n(-c3c(C)ccnc3C(C)C)c3nc(-c4c(C)cccc4F)c(F)cc23)C[C@H]1C (atropisomer, axis not shown; (M)) [Example 94-10, (M)-4-[(2S,5R)-2,5-Dimethyl-4-prop-2-enoyl-piperazin-1-yl]-6-fluoro-7-(2-fluoro-6-methyl-phenyl)-1-(2-isopropyl-4-methyl-3-pyridyl)pyrido [2,3-d]pyrimidin-2-] | – | 0.137 | – | 0.079 | > 7.5
C=CC(=O)N1C[C@H](C)N(c2nc(=O)n(-c3c(C)ccnc3C(C)C)c3nc(-c4c(F)cccc4Cl)c(F)cc23)C[C@H]1C (atropisomer, axis not shown; (M)) [Example 94-12, (M)-7-(2-Chloro-6-fluoro-phenyl)-4-[(25,5R)-2,5-dimethyl-4-prop-2-enoyl-piperazin-1-yl]-6-fluoro-1-(2-isopropyl-4-methyl-3-pyridyl)pyrido [2,3-d]pyrimidin-2-one] | – | 0.184 | – | 0.128 | > 7.5
C=CC(=O)N1C[C@H](C)N(c2nc(=O)n(-c3c(C)ccnc3C(C)C)c3nc(-c4c(F)cccc4C(N)=O)c(F)cc23)C[C@H]1C (atropisomer, axis not shown; (M)) [Example 94-19, (M)-2-[4-[(2S,5R)-2,5-Dimethyl-4-prop-2-enoyl-piperazin-1-yl]-6-fluoro-1-(2-isopropyl-4-methyl-3-pyridyl)-2-oxo-pyrido[2,3-d]pyrimidin-7-yl]-3-fluoro-benzamide] | – | 0.067 | – | 0.518 | > 7.5
